# Results as given in patent US9365523B2, “Imidazolyl amide compounds and uses related thereto” (priority 2011, dated 2016).
# System: MeV-Alaska
# Test: Antiviral activity of compound analogs against MeV-Alaska (tables 1-5)
# Assay type: cell-based, measles virus
# Settings: Table 1
row,Compound,EC50 [µM]
1,COc1ccc(-n2c(SC(C)C(=O)Nc3ncc(Cl)cc3Cl)nc3ccccc32)cc1 (stereo not shown) [Compound 1],0.3
2,COc1ccc(-n2c(SC(C)C(=O)Nc3cc(Br)ccc3Br)nc3ccccc32)cc1 (stereo not shown) [Compound 2],1.7
3,COc1ccc(-n2c(SC(C)C(=O)Nc3ncc(C(F)(F)F)cc3Cl)nc3ccccc32)cc1 (stereo not shown) [Compound 3],0.4
4,COc1ccc(-n2c(SC(C)C(=O)Nc3nc(Cl)ccc3Cl)nc3ccccc32)cc1 (stereo not shown) [Compound 4],0.3
5,COc1ccc(-n2c(SC(C)C(=O)Nc3ncc(C)cc3Cl)nc3ccccc32)cc1 (stereo not shown) [Compound 5],0.04
6,COc1ccc(-n2c(SC(C)C(=O)Nc3nnc(C)c(C)n3)nc3ccccc32)cc1 (stereo not shown) [Compound 6],16.6
7,COc1ccc(-n2c(SC(C)C(=O)Nc3nc(C)cc(Cl)n3)nc3ccccc32)cc1 (stereo not shown) [Compound 7],> 150
8,COc1ccc(-n2c(SC(C)C(=O)Nc3ncc(Br)cn3)nc3ccccc32)cc1 (stereo not shown) [Compound 8],4.1
9,COc1ccc(-n2c(SC(C)C(=O)NC3CCCCC3)nc3ccccc32)cc1 (stereo not shown) [Compound 9],> 75
10,COc1ccc(-n2c(SC(C)C(=O)Nc3cccc(C)c3)nc3ccccc32)cc1 (stereo not shown) [Compound 10],0.3
11,COc1ccc(-n2c(SC(C)C(=O)Nc3nccc(C)n3)nc3ccccc32)cc1 (stereo not shown) [Compound 11],0.6
12,COc1ccc(-n2c(SC(C)C(=O)Nc3ccc(Cl)cc3Cl)nc3ccccc32)cc1 (stereo not shown) [Compound 12],0.4
13,COc1ccc(-n2c(SC(C)C(=O)Nc3cc(OC)cc(OC)c3)nc3ccccc32)cc1 (stereo not shown) [Compound 13],> 75
14,COc1ccc(-n2c(SC(C)C(=O)Nc3cccc(Cl)c3)nc3ccccc32)cc1 (stereo not shown) [Compound 14],0.5
15,COc1ccc(-n2c(SC(C)C(=O)Nc3ccccc3C)nc3ccccc32)cc1 (stereo not shown) [Compound 15],1.14
16,COc1ccc(-n2c(SC(C)C(=O)Nc3ccc(C)c(N)c3)nc3ccccc32)cc1 (stereo not shown) [Compound 16],2.3
17,COc1ccc(-n2c(SC(C)C(=O)Nc3ccc(NC(C)=O)c(C)c3)nc3ccccc32)cc1 (stereo not shown) [Compound 17],> 9.3
18,COc1ccc(-n2c(SC(C)C(=O)Nc3cc(C)nn3C)nc3ccccc32)cc1 (stereo not shown) [Compound 18],0.9
19,COc1ccc(-n2c(SC(C)C(=O)Nc3ccc(Cl)cc3C)nc3ccccc32)cc1 (stereo not shown) [Compound 20],1.4
20,COc1ccc(-n2c(SC(C)C(=O)Nc3ccc(C)c(Cl)c3)nc3ccccc32)cc1 (stereo not shown) [Compound 21],0.4
21,COc1ccc(-n2c(SC(C)C(=O)Nc3cc(Cl)nc(Cl)c3)nc3ccccc32)cc1 (stereo not shown) [Compound 22],> 75
22,COc1ccc(-n2c(SC(C)C(=O)Nc3cccnc3)nc3ccccc32)cc1 (stereo not shown) [Compound 23],8.4
23,COc1ccc(-n2c(SC(C)C(=O)Nc3ccc(C)cn3)nc3ccccc32)cc1 (stereo not shown) [Compound 24],0.5
24,COc1ccc(-n2c(SC(C)C(=O)Nc3ccccc3)nc3ccccc32)cc1 (stereo not shown) [Compound 25],0.9
25,COc1ccc(-n2c(SC(C)C(=O)Nc3ccc(C#N)cn3)nc3ccccc32)cc1 (stereo not shown) [Compound 26],> 75
26,COc1ccc(-n2c(SC(C)C(=O)Nc3nc(Cl)cc(OC)n3)nc3ccccc32)cc1 (stereo not shown) [Compound 27],> 75

row,Compound,EC50 [µM]
1,COc1ccc(-n2c(SC(C)C(=O)Nc3c(Cl)cccc3Cl)nc3ccccc32)cc1 (stereo not shown) [Compound 28],2
2,COc1ccc(-n2c(SC(C)C(=O)Nc3ncccn3)nc3ccccc32)cc1 (stereo not shown) [Compound 29],2
3,COc1ccc(-n2c(SC(C)C(=O)Nc3nc(C)nc(C)c3Cl)nc3ccccc32)cc1 (stereo not shown) [Compound 30],> 75
4,COc1ccc(-n2c(SC(C)C(=O)Nc3ccc(C)cc3F)nc3ccccc32)cc1 (stereo not shown) [Compound 31],0.2
5,COc1ccc(-n2c(SC(C)C(=O)Nc3ccc([N+](=O)[O-])cc3C)nc3ccccc32)cc1 (stereo not shown) [Compound 32],> 9.3
6,COc1ccc(-n2c(SC(C)C(=O)Nc3cccc([N+](=O)[O-])c3)nc3ccccc32)cc1 (stereo not shown) [Compound 33],4.6
7,COc1ccc(-n2c(SC(C)C(=O)Nc3nc(C)cs3)nc3ccccc32)cc1 (stereo not shown) [Compound 35],3.6
8,COc1ccc(-n2c(SC(C)C(=O)Nc3nccs3)nc3ccccc32)cc1 (stereo not shown) [Compound 36],4
9,COc1ccc(-n2c(SC(C)C(=O)Nc3ccc(Cl)cn3)nc3ccccc32)cc1 (stereo not shown) [Compound 38],11.5
10,COc1ccc(-n2c(SC(C)C(=O)Nc3c(C)cccc3Cl)nc3ccccc32)cc1 (stereo not shown) [Compound 39],3.9
11,COc1ccc(-n2c(SC(C)C(=O)Nc3ccc(Cl)c(C)c3)nc3ccccc32)cc1 (stereo not shown) [Compound 40],6.7
12,COc1ccc(-n2c(SC(C)C(=O)Nc3nc(C)c(Br)cc3Br)nc3ccccc32)cc1 (stereo not shown) [Compound 41],0.5
13,COc1ccc(-n2c(SC(C)C(=O)Nc3ccncc3)nc3ccccc32)cc1 (stereo not shown) [Compound 42],> 75
14,COc1ccc(-n2c(SC(C)C(=O)Nc3nc(C)c(Cl)cc3Cl)nc3ccccc32)cc1 (stereo not shown) [Compound 43],0.3
15,COc1ccc(-n2c(SC(C)C(=O)Nc3nc(Cl)cc(Cl)n3)nc3ccccc32)cc1 (stereo not shown) [Compound 44],> 75
16,COc1ccc(-n2c(SC(C)C(=O)Nc3ccc(C)cc3C)nc3ccccc32)cc1 (stereo not shown) [Compound 45],1.1
17,COc1ccc(-n2c(SC(C)C(=O)Nc3cc(Cl)ccc3Cl)nc3ccccc32)cc1 (stereo not shown) [Compound 46],0.5
18,COc1ccc(-n2c(SC(C)C(=O)Nc3ccc(F)cc3)nc3ccccc32)cc1 (stereo not shown) [Compound 47],> 10
19,COc1ccc(-n2c(SC(C)C(=O)Nc3ccc(Cl)c(Cl)c3)nc3ccccc32)cc1 (stereo not shown) [Compound 48],7.3
20,COc1ccc(-n2c(SC(C)C(=O)Nc3ccc(C)cc3)nc3ccccc32)cc1 (stereo not shown) [Compound 49],0.7
21,COc1ccc(-n2c(SC(C)C(=O)Nc3ccccc3Cl)nc3ccccc32)cc1 (stereo not shown) [Compound 50],0.14
22,COc1ccc(-n2c(SC(C)C(=O)Nc3cccc(N)c3)nc3ccccc32)cc1 (stereo not shown) [Compound 51],7
23,COc1ccc(-n2c(SC(C)C(=O)Nc3ccc(N)cc3C)nc3ccccc32)cc1 (stereo not shown) [Compound 52],> 9.3
24,COc1ccc(-n2c(SC(C)C(=O)Nc3ncc(C)s3)nc3ccccc32)cc1 (stereo not shown) [Compound 53],> 150
25,COc1ccc(-n2c(SC(C)C(=O)Nc3nc(C)c(C)s3)nc3ccccc32)cc1 (stereo not shown) [Compound 54],2.5
26,COc1ccc(-n2c(SC(C)C(=O)Nc3cc(C)on3)nc3ccccc32)cc1 (stereo not shown) [Compound 55],0.49

# Same assay, conditions: Table 2
row,Compound,EC50 [µM]
1,Cc1ccc(NC(=O)C(C)Sc2nc3ccccc3n2-c2ccc(CN3CCOCC3)cc2)c(Cl)c1 (stereo not shown) [Compound 56],0.32
2,Cc1ccc(NC(=O)C(C)Sc2nc3ccccc3n2-c2ccc(OCC#N)cc2)c(Cl)c1 (stereo not shown) [Compound 57],0.7
3,Cc1ccc(NC(=O)C(C)Sc2nc3ccccc3n2-c2ccc(OCCO)cc2)c(Cl)c1 (stereo not shown) [Compound 58],4.6
4,Cc1ccc(NC(=O)C(C)Sc2nc3ccccc3n2-c2ccc(NCCN(C)C)cc2)c(Cl)c1 (stereo not shown) [Compound 59],4.2
5,Cc1ccc(NC(=O)C(C)Sc2nc3ccccc3n2-c2ccc(N(C)CCN(C)C)cc2)c(Cl)c1 (stereo not shown) [Compound 60],2.9
6,CC(=O)NCCOc1ccc(-n2c(SC(C)C(=O)Nc3ccc(C)cc3Cl)nc3ccccc32)cc1 (stereo not shown) [Compound 61],> 10
7,Cc1ccc(NC(=O)C(C)Sc2nc3ccccc3n2-c2ccc(CC=O)cc2)c(Cl)c1 (stereo not shown) [Compound 62],8.5
8,Cc1ccc(NC(=O)C(C)Sc2nc3ccccc3n2-c2ccc(CN3CCN(C)CC3)cc2)c(Cl)c1 (stereo not shown) [Compound 63],4.9
9,Cc1ccc(NC(=O)C(C)Sc2nc3ccccc3n2-c2ccc(CCO)cc2)c(Cl)c1 (stereo not shown) [Compound 64],2.5
10,Cc1ccc(NC(=O)C(C)Sc2nc3ccccc3n2-c2cccc(CN3CCN(C)CC3)c2)c(Cl)c1 (stereo not shown) [Compound 65],1.3
11,CNCCc1ccc(-n2c(SC(C)C(=O)Nc3ccc(C)cc3Cl)nc3ccccc32)cc1 (stereo not shown) [Compound 66],8.7
12,Cc1ccc(NC(=O)C(C)Sc2nc3ccccc3n2-c2ccccc2CN2CCN(C)CC2)c(Cl)c1 (stereo not shown) [Compound 67],0.18
13,Cc1ccc(NC(=O)C(C)Sc2nc3ccccc3n2-c2ccc(OCC(=O)O)cc2)c(Cl)c1 (stereo not shown) [Compound 68],> 9.3
14,COC(=O)COc1ccc(-n2c(SC(C)C(=O)Nc3ccc(C)cc3Cl)nc3ccccc32)cc1 (stereo not shown) [Compound 69],> 9.3
15,Cc1ccc(NC(=O)C(C)Sc2nc3ccccc3n2-c2ccc(N3CCN(C)CC3)cc2)c(Cl)c1 (stereo not shown) [Compound 70],2
16,COc1cccc(-n2c(SC(C)C(=O)Nc3ccc(C)cc3Cl)nc3ccccc32)c1 (stereo not shown) [Compound 71],0.6
17,Cc1ccc(NC(=O)C(C)Sc2nc3ccccc3n2-c2ccccc2)c(Cl)c1 (stereo not shown) [Compound 72],0.09
18,CCOc1ccc(-n2c(SC(C)C(=O)Nc3ccc(C)cc3Cl)nc3ccccc32)cc1 (stereo not shown) [Compound 73],0.05
19,Cc1ccc(NC(=O)C(C)Sc2nc3ccccc3n2Cc2ccccc2)c(Cl)c1 (stereo not shown) [Compound 74],0.5
20,Cc1cccc(-n2c(SC(C)C(=O)Nc3ccc(C)cc3Cl)nc3ccccc32)c1 (stereo not shown) [Compound 75],0.1
21,Cc1ccc(NC(=O)C(C)Sc2nc3ccccc3n2-c2ccc(O)cc2)c(Cl)c1 (stereo not shown) [Compound 76],3.8
22,Cc1ccc(NC(=O)C(C)Sc2nc3ccccc3n2-c2ccc(N(C)C)cc2)c(Cl)c1 (stereo not shown) [Compound 77],0.29
23,Cc1ccc(NC(=O)C(C)Sc2nc3ccccc3n2-c2ccc(N)cc2)c(Cl)c1 (stereo not shown) [Compound 78],1.33
24,Cc1ccc(NC(=O)C(C)Sc2nc3ccccc3n2-c2ccccc2CN2CCOCC2)c(Cl)c1 (stereo not shown) [Compound 79],0.3
25,Cc1ccc(NC(=O)C(C)Sc2nc3ccccc3n2-c2cccc(CO)c2)c(Cl)c1 (stereo not shown) [Compound 80],0.7
26,Cc1ccc(NC(=O)C(C)Sc2nc3ccccc3n2-c2ccc(CO)cc2)c(Cl)c1 (stereo not shown) [Compound 81],3.91
27,Cc1ccc(NC(=O)C(C)Sc2nc3ccccc3n2-c2cccc(C(=O)O)c2)c(Cl)c1 (stereo not shown) [Compound 82],> 75
28,Cc1ccc(NC(=O)C(C)Sc2nc3ccccc3n2-c2cccc(CN3CCOCC3)c2)c(Cl)c1 (stereo not shown) [Compound 83],0.27
29,Cc1ccc(NC(=O)C(C)Sc2nc3ccccc3n2-c2ccc(N3CCOCC3)cc2)c(Cl)c1 (stereo not shown) [Compound 84],0.3
30,COc1ccc(Cn2c(SC(C)C(=O)Nc3ccc(C)cc3Cl)nc3ccccc32)cc1 (stereo not shown) [Compound 85],0.4
